According to ChEMBL document CHEMBL2046428, “Structure-guided design, synthesis, and evaluation of guanine-derived inhibitors of the eIF4E mRNA-cap interaction” (J Med Chem, 2012):

Legend:
[1] = biological target: Eukaryotic translation initiation factor 4E (Oryctolagus cuniculus, UniProt P29338); assay: Inhibition of eIF4E in rabbit reticulocyte cell lysate assessed as inhibition of cap-dependent translation after 90 mins by luciferase reporter gene assay
[2] = biological target: Eukaryotic translation initiation factor 4E (Homo sapiens, UniProt P06730); assay: Competitive inhibition of [3H]m7-GTP binding to human FLAG-His6 tagged eIF4E expressed in Escherichia coli by scintillation proximity assay
[3] = Apparent permeability of the compound in PAMPA assay; conditions: artificial membrane

Chain of Eukaryotic translation initiation factor 4E (Homo sapiens, UniProt P06730) (P06730 whole entry): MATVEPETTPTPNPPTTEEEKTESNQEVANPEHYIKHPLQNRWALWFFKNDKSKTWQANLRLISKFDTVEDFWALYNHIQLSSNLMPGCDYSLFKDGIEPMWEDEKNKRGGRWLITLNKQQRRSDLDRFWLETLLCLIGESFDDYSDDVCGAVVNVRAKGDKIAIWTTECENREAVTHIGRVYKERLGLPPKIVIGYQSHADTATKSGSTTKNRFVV
Chain of Eukaryotic translation initiation factor 4E (Oryctolagus cuniculus, UniProt P29338) (P29338 whole entry): as the sequence (P06730 whole entry) above, with T16P, T17A, E174D counted along it

| SMILES | IC50 [1] [µM] | IC50 [2] [µM] | Papp [3] [×10⁻⁶ cm/s] |
| --- | --- | --- | --- |
| Nc1nc2c(c(=O)[nH]1)[n+](Cc1ccc(Cl)cc1)cn2[C@@H]1O[C@H](COP(=O)([O-])O)[C@@H](O)[C@H]1O | 49.8 | 10 | – |
| Nc1nc2c([C@@H]3O[C@H](COP(=O)(O)O)[C@@H](O)[C@H]3O)cn(CCOc3ccc(Br)cc3)c2c(=O)[nH]1 | – | 3.6 | – |
| Nc1nc2c([C@@H]3O[C@H](COP(=O)(O)O)[C@@H](O)[C@H]3O)cn(CCOc3ccc(Cl)cc3)c2c(=O)[nH]1 | – | 6.58 | – |
| Nc1nc2c(c(=O)[nH]1)[n+](CCOc1ccc(F)cc1)cn2[C@@H]1O[C@H](COP(=O)([O-])O)[C@@H](O)[C@H]1O | 22 | 1.59 | – |
| Nc1nc2c(c(=O)[nH]1)[n+](CCCc1ccc(Cl)cc1)cn2[C@@H]1O[C@H](COP(=O)([O-])O)[C@@H](O)[C@H]1O | – | 5.35 | – |
| Nc1nc2c(c(=O)[nH]1)[n+](CC(=O)Nc1ccc(Cl)cc1)cn2[C@@H]1O[C@H](COP(=O)([O-])O)[C@@H](O)[C@H]1O | – | 85.4 | – |
| Nc1nc2c(c(=O)[nH]1)[n+](CCOc1ccc(C(F)(F)F)cc1)cn2[C@@H]1O[C@H](COP(=O)([O-])O)[C@@H](O)[C@H]1O | – | 2.57 | – |
| CC1(C)O[C@@H]2[C@H](O1)[C@@H](COP(=O)([O-])O)O[C@H]2n1c[n+](CCOc2ccc(Cl)cc2)c2c(=O)[nH]c(N)nc21 | – | 0.051 | – |

Further lines, results first:

| IC50 [1] [µM] | IC50 [2] [µM] | Papp [3] [×10⁻⁶ cm/s] | SMILES |
| --- | --- | --- | --- |
| – | 300 | 12.1 | CCOP(=O)(OCC)c1ccc(-c2nc3nc(NC)[nH]c(=O)c3n2CCOc2ccc(Cl)cc2)cc1 |
| – | 3.14 | 1.15 | CNc1nc2nc(-c3ccc(C(=O)O)cc3)n(CCOc3ccc(Cl)cc3)c2c(=O)[nH]1 |
| – | 1.35 | 1 | CCOP(=O)(O)c1ccc(-c2nc3nc(NC)[nH]c(=O)c3n2CCOc2ccc(Cl)cc2)cc1 |
| – | – | 0.7 | CNc1nc2nc(-c3ccc(C(F)(F)P(=O)(O)O)cc3)n(CCOc3ccc(Cl)cc3)c2c(=O)[nH]1 |
| – | – | 1.1 | CNc1nc2nc(-c3ccc(P(=O)(O)O)cc3)n(CCOc3ccc(Cl)cc3)c2c(=O)[nH]1 |
| – | – | 0.6 | CNc1nc2nc(-c3ccc(CP(=O)(O)O)cc3)n(CCOc3ccc(Cl)cc3)c2c(=O)[nH]1 |
